Experimental data reported in patent publication US12336981B2, “Compounds and compositions for the inhibition of NAMPT” (Valo Health, Inc., priority 2010, dated 2025).
Read-outs that look alike come from different tables or passages of the source.

How the values were obtained:
A2780 cells = assay: In-vitro cell proliferation assay (SRB), A2780 cells; format: cell-based; conditions: Homo sapiens, A2780, 72 h, A2780 cells, 72 hours, read-out: A2780 IC50
How it was run: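 Cells were plated overnight at 37° C., 5% CO2, then exposed to serially diluted compounds (0.1% DMSO final) for 72 hours. Viable cells were measured by sulforhodamine B staining after TCA fixation, read at 570 nm; media-only background was subtracted before % inhibition was calculated.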

NAMPT = molecular target: T1, NAMPT (Homo sapiens, UniProt P43490); assay: Biochemical inhibition assay: NAMPT enzymatic reaction, NMN quantified by mass spectrometry; conditions: read-out: Biochem IC50
T1 construct: His tag; host or cells: E. coli
How it was run: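 Inhibition of E. coli-expressed His-tagged human NAMPT, measured as NMN formation by mass spectrometry after a 30 min room-temperature reaction containing 1 μM NAM, 100 μM PRPP and 2.5 mM ATP.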

T1 sequence (P43490 whole entry): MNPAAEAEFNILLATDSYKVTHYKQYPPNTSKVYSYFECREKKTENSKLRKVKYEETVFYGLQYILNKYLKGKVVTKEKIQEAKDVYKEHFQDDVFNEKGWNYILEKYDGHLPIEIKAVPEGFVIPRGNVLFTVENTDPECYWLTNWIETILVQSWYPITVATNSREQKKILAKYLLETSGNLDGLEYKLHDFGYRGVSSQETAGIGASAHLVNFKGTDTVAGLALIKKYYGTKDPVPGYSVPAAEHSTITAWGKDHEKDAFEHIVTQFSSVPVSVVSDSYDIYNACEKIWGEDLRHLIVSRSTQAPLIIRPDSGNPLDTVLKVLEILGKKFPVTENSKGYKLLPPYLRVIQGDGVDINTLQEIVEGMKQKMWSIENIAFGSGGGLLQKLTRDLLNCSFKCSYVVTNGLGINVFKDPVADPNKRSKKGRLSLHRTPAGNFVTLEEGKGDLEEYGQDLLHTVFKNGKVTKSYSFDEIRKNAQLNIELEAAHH

Compound | IC50 (A2780 cells; SRB) | IC50 (NAMPT; NAMPT enzymatic reaction) | IC50 (NAMPT; NAMPT enzymatic assay) | IC50 (A2780 cells; SRB assay)
CCCOc1ccc(S(=O)(=O)c2ccc(CNC(=O)c3cc4ccncc4s3)cc2)cc1Cl | 17.4 nM | 15.1 nM |  | 
O=C(NCc1ccc(S(=O)(=O)c2cnc3ccc(Cl)cn23)cc1)c1cc2ccncc2o1 [N-[(4-{6-chloroimidazo[1,2-a]pyridine-3-sulfonyl}phenyl)methyl]furo[2,3-c]pyridine-2-carboxamide] | 0.4 nM |  | 1.2 nM | 
CCCOc1ccc(Cl)cc1S(=O)(=O)c1ccc(CNC(=O)c2cnc3[nH]ncc3c2)cc1 [N-({4-[(5-chloro-2-propoxybenzene)sulfonyl]phenyl}methyl)-1H-pyrazolo[3,4-b]pyridine-5-carboxamide] | 25.1 nM | 49.2 nM |  | 
Cc1cncc(S(=O)(=O)c2ccc(CNC(=O)c3cc4ccncc4o3)cc2)n1 [N-{[4-(6-methylpyrazine-2-sulfonyl)phenyl]methyl}furo[2,3-c]pyridine-2-carboxamide] | 9.7 nM |  | 20.9 nM | 
CC(=O)c1cccc(S(=O)(=O)c2ccc(CNC(=O)c3cnc4[nH]ncc4c3)cc2)c1 | 12.9 nM | 10 nM |  | 
O=C(NCc1ccc(S(=O)(=O)c2cccc3cc[nH]c23)cc1)c1cc2ccncc2s1 [N-{[4-(1H-indole-7-sulfonyl)phenyl]methyl}thieno[2,3-c]pyridine-2-carboxamide] |  | 3 nM |  | 2.7 nM
COc1ccc(C(F)(F)F)cc1S(=O)(=O)c1ccc(CNC(=O)c2cnc3nccn3c2)cc1 | 3.6 nM |  | 6.8 nM | 
CCC[C@@H](O)c1ccc(S(=O)(=O)c2ccc(CNC(=O)c3cc4ccncc4o3)cc2)cc1 | 12.2 nM |  | 28.5 nM | 
O=C(NCc1ccc(S(=O)(=O)c2ccc3c(c2)OCCO3)cc1)c1cnc2nccn2c1 [N-{[4-(2,3-dihydro-1,4-benzodioxine-6-sulfonyl)phenyl]methyl}imidazo[1,2-a]pyrimidine-6-carboxamide] | 0.5 nM |  | 0.2 nM | 
O=C(NCc1ccc(S(=O)(=O)c2cc(Cl)cc(Cl)c2)cc1)c1cnc2[nH]ncc2c1 | 2.1 nM | 6.7 nM |  | 
Cc1ccc(S(=O)(=O)c2ccc(CNC(=O)c3cnc4[nH]ncc4c3)cc2)c(Cl)c1 [N-({4-[(2-chloro-4-methylbenzene)sulfonyl]phenyl}methyl)-1H-pyrazolo[3,4-b]pyridine-5-carboxamide] | 2.78 nM | 5 nM |  | 
CC(C)COc1cc(F)cc(S(=O)(=O)c2ccc(CNC(=O)c3cnc4[nH]ncc4c3)cc2)c1 [N-[(4-{[3-fluoro-5-(2-methylpropoxy)benzene]sulfonyl}phenyl)methyl]-1H-pyrazolo[3,4-b]pyridine-5-carboxamide] | 9.49 nM |  | 11.2 nM | 
O=C(NCc1ccc(S(=O)(=O)c2ccc(C(F)(F)F)c(Cl)c2)cc1)c1cc2ccncc2o1 | 6.2 nM |  | 7.9 nM | 
O=C(NCc1ccc(S(=O)(=O)c2ccc3c(c2)OCO3)cc1)c1cnc2nccn2c1 [N-{[4-(2H-1,3-benzodioxole-5-sulfonyl)phenyl]methyl}imidazo[1,2-a]pyrimidine-6-carboxamide] | 11.7 nM |  | 3 nM | 
COc1ccc(S(=O)(=O)c2ccc(CNC(=O)c3cc4ccncc4s3)cc2)nc1 [N-{[4-(5-methoxypyridine-2-sulfonyl)phenyl]methyl}thieno[2,3-c]pyridine-2-carboxamide] | 19.3 nM |  | 7.1 nM | 
CN(C)c1ncc(S(=O)(=O)c2ccc(CNC(=O)c3cc4ccncc4o3)cc2)cn1 [N-({4-[2-(dimethylamino)pyrimidine-5-sulfonyl]phenyl}methyl)furo[2,3-c]pyridine-2-carboxamide] | 12 nM |  | 25.8 nM | 
O=C(NCc1ccc(S(=O)(=O)c2cccc3c2OCC3)cc1)c1cnc2nccn2c1 [N-{[4-(2,3-dihydro-1-benzofuran-7-sulfonyl)phenyl]methyl}imidazo[1,2-a]pyrimidine-6-carboxamide] | 25.8 nM |  | 2.1 nM | 
O=C(NCc1ccc(S(=O)(=O)c2ccccc2)cc1)N1CCc2nocc2C1 [N-{[4-(benzenesulfonyl)phenyl]methyl}-4H,5H,6H,7H-[1,2]oxazolo[4,3-c]pyridine-5-carboxamide] |  | > 2000 nM |  | > 2000 nM

Compound | IC50 (A2780 cells; SRB) | IC50 (NAMPT; NAMPT enzymatic reaction) | IC50 (NAMPT; NAMPT enzymatic assay) | IC50 (A2780 cells; SRB assay)
Cc1ccc(Cl)c(S(=O)(=O)c2ccc(CNC(=O)c3cc4ccncc4s3)cc2)c1F | 6.8 nM |  | 7.7 nM | 
NS(=O)(=O)c1cccc(S(=O)(=O)c2ccc(CNC(=O)c3ccc4nccn4c3)cc2)c1 | 54.6 nM | 10.3 nM |  | 
COc1ccc(C)cc1S(=O)(=O)c1ccc(CNC(=O)c2cc3ccncc3o2)cc1 | 6.8 nM | 13.3 nM |  | 
Cc1cc(-n2cccn2)ccc1S(=O)(=O)c1ccc(CNC(=O)c2cnc3[nH]ncc3c2)cc1 | 23.5 nM |  | 27.1 nM | 
CN(C)c1ncc(S(=O)(=O)c2ccc(CNC(=O)c3cnc4[nH]ncc4c3)cc2)cn1 [N-({4-[2-(dimethylamino)pyrimidine-5-sulfonyl]phenyl}methyl)-1H-pyrazolo[3,4-b]pyridine-5-carboxamide] | 5.9 nM |  | 7.9 nM | 
O=C(NCc1ccc(S(=O)(=O)c2cncc(F)c2)cc1)c1cnc2nccn2c1 [N-{[4-(5-fluoropyridine-3-sulfonyl)phenyl]methyl}imidazo[1,2-a]pyrimidine-6-carboxamide] | 56.4 nM |  | 6.7 nM | 
CN1CCN(c2ccc(S(=O)(=O)c3ccc(CNC(=O)c4cnc5[nH]ncc5c4)cc3)cc2)CC1 | 1.3 nM |  | 4 nM | 
COc1ccc(C(C)C)cc1S(=O)(=O)c1ccc(CNC(=O)c2ccc3nccn3c2)cc1 | 6.4 nM |  | 35.2 nM | 
CCc1ccccc1S(=O)(=O)c1ccc(CNC(=O)c2cnc3nccn3c2)cc1 | 24.9 nM | 2.5 nM |  | 
CC(C)NC(=O)c1cc(S(=O)(=O)c2ccc(CNC(=O)c3cc4ccncc4s3)cc2)ccc1F | 6.8 nM |  | 21.3 nM | 
COc1cc(C(F)(F)F)ccc1S(=O)(=O)c1ccc(CNC(=O)c2cnc3nccn3c2)cc1 | 22.4 nM |  | 4.4 nM | 
O=C(NCc1ccc(S(=O)(=O)c2cccc3c2OCO3)cc1)c1cc2cnccc2[nH]1 [N-{[4-(2H-1,3-benzodioxole-4-sulfonyl)phenyl]methyl}-1H-pyrrolo[3,2-c]pyridine-2-carboxamide] | 11.8 nM |  | 20.5 nM | 
N#Cc1ccccc1S(=O)(=O)c1ccc(CNC(=O)c2cc3cnccc3[nH]2)cc1 [N-({4-[(2-cyanobenzene)sulfonyl]phenyl}methyl)-1H-pyrrolo[3,2-c]pyridine-2-carboxamide] | 62.9 nM | 25.3 nM |  | 
O=C(NCc1ccc(S(=O)(=O)c2cccc3c2Oc2ccccc2S3)cc1)c1cc2ccncc2o1 [N-{[4-(phenoxathiine-4-sulfonyl)phenyl]methyl}furo[2,3-c]pyridine-2-carboxamide] | 13.1 nM |  | 5.6 nM | 
Cc1cncc(S(=O)(=O)c2ccc(CNC(=O)c3cc4ccncc4s3)cc2)c1 [N-{[4-(5-methylpyridine-3-sulfonyl)phenyl]methyl}thieno[2,3-c]pyridine-2-carboxamide] | 2.5 nM |  | 6 nM | 
Cc1cnc(S(=O)(=O)c2ccc(CNC(=O)c3cnc4nccn4c3)cc2)n1C [N-{[4-(1,5-dimethyl-1H-imidazole-2-sulfonyl)phenyl]methyl}imidazo[1,2-a]pyrimidine-6-carboxamide] | 1000 to 10000 nM |  | 32.9 nM | 
O=C(NCc1ccc(S(=O)(=O)c2ccc(F)c(F)c2)cc1)c1cnc2[nH]ncc2c1 | 28.9 nM | 54.2 nM |  | 
